Experiment [1] deals with Poly [ADP-ribose] polymerase 1 (Homo sapiens) (UniProt P09874). Kind of experiment: Inhibition of PARP1 (unknown origin) at 2.8 uM.
The test system of experiment [2] is PC-12. Nature of the experiment: Neuroprotective activity against H2O2 -mediated injury in rat PC12 cells assessed as cell survival at 0.01 uM relative to control. It counts as functional. Particulars: read-out: Survival.
Experiment [3] has as its system PC-12. Nature of the experiment: Neuroprotective activity against H2O2 -mediated injury in rat PC12 cells assessed as cell survival at 0.1 uM relative to control. It counts as functional. To be noted: read-out: Survival.
Experiment [4] concerns PC-12. Nature of the experiment: Neuroprotective activity against H2O2 -mediated injury in rat PC12 cells assessed as cell survival at 1 uM relative to control. To be noted: read-out: Survival. The experiment is classed as functional.

Structures are written as SMILES.

We go through 4 compounds from ChEMBL document CHEMBL3421544, “Design, synthesis and biological evaluation of pyridazino[3,4,5-de]quinazolin-3(2H)-one as a new class of PARP-1 inhibitors” (Bioorg Med Chem Lett, 2015).

Sequence of Poly [ADP-ribose] polymerase 1 (Homo sapiens) (P09874 whole entry): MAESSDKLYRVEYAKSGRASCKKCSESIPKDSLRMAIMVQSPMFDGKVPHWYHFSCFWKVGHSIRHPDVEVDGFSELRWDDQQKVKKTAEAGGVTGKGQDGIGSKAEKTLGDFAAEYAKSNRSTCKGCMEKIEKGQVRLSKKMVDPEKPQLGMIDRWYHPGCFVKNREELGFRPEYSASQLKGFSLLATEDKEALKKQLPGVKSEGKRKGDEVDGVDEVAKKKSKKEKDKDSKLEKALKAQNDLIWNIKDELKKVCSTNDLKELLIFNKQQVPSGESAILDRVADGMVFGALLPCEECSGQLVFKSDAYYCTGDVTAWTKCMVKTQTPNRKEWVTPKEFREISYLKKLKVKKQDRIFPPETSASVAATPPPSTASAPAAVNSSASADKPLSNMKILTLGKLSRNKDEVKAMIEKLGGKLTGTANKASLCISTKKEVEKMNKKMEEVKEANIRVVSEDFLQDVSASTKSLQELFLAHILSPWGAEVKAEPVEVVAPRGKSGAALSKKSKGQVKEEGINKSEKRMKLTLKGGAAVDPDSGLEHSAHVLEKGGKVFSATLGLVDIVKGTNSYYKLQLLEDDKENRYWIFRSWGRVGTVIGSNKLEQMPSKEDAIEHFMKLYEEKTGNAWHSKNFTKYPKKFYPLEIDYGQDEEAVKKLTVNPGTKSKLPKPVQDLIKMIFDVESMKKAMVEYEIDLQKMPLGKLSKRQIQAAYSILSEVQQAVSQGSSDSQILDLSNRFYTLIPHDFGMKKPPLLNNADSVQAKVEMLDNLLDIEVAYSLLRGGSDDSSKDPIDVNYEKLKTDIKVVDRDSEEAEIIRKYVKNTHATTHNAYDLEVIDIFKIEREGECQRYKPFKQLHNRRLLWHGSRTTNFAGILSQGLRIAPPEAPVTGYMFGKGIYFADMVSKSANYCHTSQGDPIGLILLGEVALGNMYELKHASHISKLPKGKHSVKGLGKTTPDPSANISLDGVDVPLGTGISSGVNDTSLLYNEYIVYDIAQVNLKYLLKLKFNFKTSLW

As a reminder, the inhibition is the relative decrease from the control value, in per cent. A lower inhibition goes with a response near the control. Turning to `NC(=O)c1ccccc1`, in experiment [1], the inhibition was determined as 59.3%.
Regarding `O=c1[nH]nc2c3c(cccc13)N=C(c1ccccc1)N2`, in experiment [2], the viability at 0.01 µM worked out at 81.6%. Moreover, the viability at 0.1 µM in experiment [3] is 98.2%. Further, the viability at 1 µM in experiment [4] turned out to be 88.5%.
The like results for `Cc1ccc(C2=Nc3cccc4c(=O)[nH]nc(c34)N2)cc1` were, in that order, 70.9%, 97.2% and 98%.
For `COCCOC(=O)C1=C(C)NC(C)=C(C(=O)OC(C)C)C1c1cccc([N+](=O)[O-])c1` (stereo not drawn) [NIMODIPINE], the viability at 1 µM in experiment [4] was determined as 90.4%.
